Test results from patent US10059713B2 (Takeda Pharmaceutical Company Limited, priority 2014, dated 2018).

The compounds below were run against human GPR43 (Homo sapiens (Human), UniProt O15552) (assay: Ca-Flux functional assay: determination of agonist/positive allosteric modulator (PAM) activity). Conditions: CHO-K1 Gα16 cells stably expressing human GPR43; compound added with EC20 sodium acetate; intracellular Ca2+ by FLIPR; does not distinguish agonist from PAM.
Assay type: cell-based
Procedure: Ca-Flux Functional Assay: Determination of Agonist/Positive Allosteric Modulator (PAM) Activity
GPR43 agonist/PAM activity was determined by measuring changes in intracellular calcium levels using a Ca^2+ sensitive fluorescent dye. The changes in fluorescent signal were monitored by FLIPR (manufactured by Molecular Devices). GPR43 mediated increases in intracellular Ca^2+ concentration were readily detected upon activation with sodium acetate. Prior to the assay (24 hours), CHO-K1 Gα16 cells stably expressing human GPR43 were-seeded in cell culture medium in black, clear-bottom 384-well plates (Corning Inc) and grown overnight at 37° C., 5% CO2. On the day of the assay, cell culture media was removed and cells were loaded with Calcium 5 Dye (Molecular Devices) diluted in HBSS containing 25 mM HEPES, 2.5 mM Probenecid, 0.1% BSA for 1 hour at 37° C., 5% CO2. 10 point half log concentration response curves of sodium acetate from 10 mM were conducted prior to the testing of compounds to calculate the sodium acetate concentration that produces 20% of the maximal response (EC20). Test compounds (at 10 point half log concentration response curves from 10 μM) were added in the presence of sodium acetate to achieve a final concentration that produces approximately 20% maximal response as calculated from the previous experiment. The changes in fluorescent signal were monitored by FLIPR upon addition of the compound/EC20 sodium acetate mix. The EC50 values were determined from ten point concentration response curves. Curves were generated using the average of two wells for each data point.
The above assay detects both GPR43 receptor agonists and positive allosteric modulators of the GPR43 receptor, without distinguishing between the two. Activity in either regard is useful in the treatment of conditions associated with GPR43 receptor activity.

human GPR43, sequence (O15552 whole entry): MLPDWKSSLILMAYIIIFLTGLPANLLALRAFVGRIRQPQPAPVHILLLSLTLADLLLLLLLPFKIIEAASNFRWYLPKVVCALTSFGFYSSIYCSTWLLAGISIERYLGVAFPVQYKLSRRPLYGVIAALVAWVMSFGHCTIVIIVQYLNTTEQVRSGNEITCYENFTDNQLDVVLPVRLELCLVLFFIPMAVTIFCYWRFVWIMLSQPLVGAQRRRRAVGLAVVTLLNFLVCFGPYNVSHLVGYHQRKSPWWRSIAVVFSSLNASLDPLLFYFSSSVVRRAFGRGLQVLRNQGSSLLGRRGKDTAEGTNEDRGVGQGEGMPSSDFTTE

| Structure (SMILES) | EC50 [µM] |
| --- | --- |
| Cc1ccccc1-c1ncnc2c(S(=O)(=O)c3ccccc3)c(N)[nH]c12 [Example 108, 7-(benzenesulfonyl)-4-(2-methylphenyl)-5H-pyrrolo[3,2-d]pyrimidin-6-amine] | 0.092 |
| N#CC1CN(c2ncnc3c(S(=O)(=O)c4ccccc4)c(N)[nH]c23)CCO1 (stereo not shown) [Example 216, 4-[6-amino-7-(benzenesulfonyl)-5H-pyrrolo[3,2-d]pyrimidin-4-yl]morpholine-2-carbonitrile] | 0.117 |
| CC(C)Oc1ccc(S(=O)(=O)c2c(N)[nH]c3c(N4CCOC(C)C4)ncnc23)cc1 (stereo not shown) [Example 126, 4-(2-methylmorpholin-4-yl)-7-[4-(propan-2-yloxy)benzenesulfonyl]-5H-pyrrolo[3,2-d]pyrimidin-6-amine] | 0.053 |
| Nc1[nH]c2c(C3CCC(F)(F)CC3)ncnc2c1S(=O)(=O)c1ccccc1 [Example 155, 7-(benzenesulfonyl)-4-(4,4-difluorocyclohexyl)-5H-pyrrolo[3,2-d]pyrimidin-6-amine] | 0.33 |
| COC(=O)Nc1[nH]c2c(C3=CCCCC3)ncnc2c1S(=O)(=O)c1ccccc1 [Example 17, Methyl-N-[7-(benzenesulfonyl)-4-(cyclohex-1-en-1-yl)-5H-pyrrolo[3,2-d]pyrimidin-6-yl]carbamate] | 5.09 |
| Cc1nc(N2CCO[C@H](C(F)(F)F)C2)c2[nH]c(N)c(S(=O)(=O)c3ccccc3F)c2n1 [Example 281, 7-(2-fluorobenzenesulfonyl)-2-methyl-4-[(2S)-2-(trifluoromethyl)morpholin-4-yl]-5H-pyrrolo[3,2-d]pyrimidin-6-amine] | 0.001 |
| CN(Cc1ccccn1)c1ncnc2c(S(=O)(=O)c3ccccc3)c(N)[nH]c12 [Example 95, 7-(benzenesulfonyl)-4-N-methyl-4-N-(pyridin-2-ylmethyl)-5H-pyrrolo[3,2-d]pyrimidine-4,6-diamine] | 7.13 |
| CC1COCCN1c1ncnc2c(S(=O)(=O)c3ccccc3)c(N)[nH]c12 (stereo not shown) [Example 54, 7-(benzenesulfonyl)-4-(3-methylmorpholin-4-yl)-5H-pyrrolo[3,2-d]pyrimidin-6-amine] | 0.211 |
| Nc1[nH]c2c(N3CCC3)ncnc2c1S(=O)(=O)c1ccccc1 [Example 30, 4-(azetidin-1-yl)-7-(benzenesulfonyl)-5H-pyrrolo[3,2-d]pyrimidin-6-amine] | 9.53 |
| CC1CN(c2ncnc3c(S(=O)(=O)Cc4ccccc4)c(N)[nH]c23)CCO1 (stereo not shown) [Example 125, 4-(2-methylmorpholin-4-yl)-7-phenylmethanesulfonyl-5H-pyrrolo[3,2-d]pyrimidin-6-amine] | 5.52 |
| Cc1cccc(-c2ncnc3c(S(=O)(=O)c4ccccc4)c(N)[nH]c23)c1 [Example 57, 7-(benzenesulfonyl)-4-(3-methylphenyl)-5H-pyrrolo[3,2-d]pyrimidin-6-amine] | 0.015 |
| Cc1nc(N2CCC(F)(F)CC2)c2[nH]c(N)c(S(=O)(=O)c3ccccc3)c2n1 [Example 142, 7-(benzenesulfonyl)-4-(4,4-difluoropiperidin-1-yl)-2-methyl-5H-pyrrolo[3,2-d]pyrimidin-6-amine] | 0.02 |
| CCN(Cc1ccco1)c1ncnc2c(S(=O)(=O)c3ccccc3)c(N)[nH]c12 [Example 62, 7-(benzenesulfonyl)-4-N-ethyl-4-N-(furan-2-ylmethyl)-5H-pyrrolo[3,2-d]pyrimidine-4,6-diamine] | 0.091 |
| Cc1nc(OC2CCOC(C)(C)C2)c2[nH]c(N)c(S(=O)(=O)c3ccccc3)c2n1 (stereo not shown) [Example 253, 7-(benzenesulfonyl)-4-[(2,2-dimethyloxan-4-yl)oxy]-2-methyl-5H-pyrrolo[3,2-d]pyrimidin-6-amine] | 0.133 |
| COc1ccc(S(=O)(=O)c2c(N)[nH]c3c(C4CCCCC4)ncnc23)cc1 [Example 5, 4-cyclohexyl-7-[(4-methoxybenzene)sulfonyl]-5H-pyrrolo[3,2-d]pyrimidin-6-amine] | 0.08 |
| Nc1[nH]c2c(N3CCOC4(CC4)C3)ncnc2c1S(=O)(=O)c1ccccc1 [Example 151, 7-(benzenesulfonyl)-4-{4-oxa-7-azaspiro[2.5]octan-7-yl}-5H-pyrrolo[3,2-d]pyrimidin-6-amine] | 0.023 |
| CSc1nc(N2CCOC(C)C2)c2[nH]c(N)c(S(=O)(=O)c3ccccc3)c2n1 (stereo not shown) [Example 238, 7-(benzenesulfonyl)-4-(2-methylmorpholin-4-yl)-2-(methylsulfanyl)-5H-pyrrolo[3,2-d]pyrimidin-6-amine] | 0.018 |
| CNc1[nH]c2c(C3CCCCC3)ncnc2c1S(=O)(=O)c1ccccc1 [Example 35, 7-(benzenesulfonyl)-4-cyclohexyl-N-methyl-5H-pyrrolo[3,2-d]pyrimidin-6-amine] | 7.52 |
| Nc1[nH]c2c(-c3cccnc3)ncnc2c1S(=O)(=O)c1ccccc1 [Example 67, 7-(benzenesulfonyl)-4-(pyridin-3-yl)-5H-pyrrolo[3,2-d]pyrimidin-6-amine] | 3.17 |
| Cc1nc(N2C[C@H](C)OC[C@@H]2C)c2[nH]c(N)c(S(=O)(=O)c3ccccc3)c2n1 [Example 220, 7-(benzenesulfonyl)-4-[(2S,5S)-2,5-dimethylmorpholin-4-yl]-2-methyl-5H-pyrrolo[3,2-d]pyrimidin-6-amine] | 0.021 |
| Nc1[nH]c2c(N3CC4CCC(C3)O4)ncnc2c1S(=O)(=O)c1ccccc1 [Example 132, 7-(benzenesulfonyl)-4-{8-oxa-3-azabicyclo[3.2.1]octan-3-yl}-5H-pyrrolo[3,2-d]pyrimidin-6-amine] | 1.51 |
| Nc1[nH]c2c(N3CCC(F)(F)C3)ncnc2c1S(=O)(=O)c1ccccc1 [Example 29, 7-(benzenesulfonyl)-4-(3,3-difluoropyrrolidin-1-yl)-5H-pyrrolo[3,2-d]pyrimidin-6-amine] | 0.399 |
| Cc1nc(N2CCOC(C)(C)C2)c2[nH]c(N)c(S(=O)(=O)c3cccc(F)c3)c2n1 [Example 191, 4-(2,2-dimethylmorpholin-4-yl)-7-(3-fluorobenzenesulfonyl)-2-methyl-5H-pyrrolo[3,2-d]pyrimidin-6-amine] | 0.043 |
| Nc1[nH]c2c(N3CCC(F)(F)CC3)ncnc2c1S(=O)(=O)c1ccccc1F [Example 74, 4-(4,4-difluoropiperidin-1-yl)-7-(2-fluorobenzenesulfonyl)-5H-pyrrolo[3,2-d]pyrimidin-6-amine] | 0.009 |
| C=C(C)c1nc(C)nc2c(S(=O)(=O)c3ccccc3F)c(N)[nH]c12 [Example 224, 7-(2-fluorobenzenesulfonyl)-2-methyl-4-(prop-1-en-2-yl)-5H-pyrrolo[3,2-d]pyrimidin-6-amine] | 0.085 |
| CCN(CC)c1ncnc2c(S(=O)(=O)c3ccccc3)c(N)[nH]c12 [Example 94, 7-(benzenesulfonyl)-4-N,4-N-diethyl-5H-pyrrolo[3,2-d]pyrimidine-4,6-diamine] | 0.061 |
| Cc1nc(N2CCOC(C)C2)c2[nH]c(N)c(S(=O)(=O)c3ccc(F)cc3F)c2n1 (stereo not shown) [Example 262, 7-(2,4-difluorobenzenesulfonyl)-2-methyl-4-(2-methylmorpholin-4-yl)-5H-pyrrolo[3,2-d]pyrimidin-6-amine] | 0.005 |
| CCC1CN(c2ncnc3c(S(=O)(=O)c4ccc(OC)cc4)c(N)[nH]c23)CCO1 (stereo not shown) [Example 190, 4-(2-ethylmorpholin-4-yl)-7-(4-methoxybenzenesulfonyl)-5H-pyrrolo[3,2-d]pyrimidin-6-amine] | 0.125 |
